From patent US20230002327A1, “SMALL-MOLECULE REGULATOR OF TLR8” (TSINGHUA UNIVERSITY, priority 2019, published 2023)

How the values were obtained:
TLR8 = target: T1, TLR8 (Homo sapiens, UniProt Q9NR97); assay: Inhibition of R848-induced signaling in HEK-Blue hTLR8 cell line (Quanti-Blue); type: cell-based; conditions: HEK-Blue hTLR8 cell line; normalized, ligand+DMSO = 100% activity, untreated = 0%
T1 construct: host or cells: HEK-Blue hTLR8 (HEK293-derived SEAP reporter cells)
T1 sequence (Q9NR97 27-1041): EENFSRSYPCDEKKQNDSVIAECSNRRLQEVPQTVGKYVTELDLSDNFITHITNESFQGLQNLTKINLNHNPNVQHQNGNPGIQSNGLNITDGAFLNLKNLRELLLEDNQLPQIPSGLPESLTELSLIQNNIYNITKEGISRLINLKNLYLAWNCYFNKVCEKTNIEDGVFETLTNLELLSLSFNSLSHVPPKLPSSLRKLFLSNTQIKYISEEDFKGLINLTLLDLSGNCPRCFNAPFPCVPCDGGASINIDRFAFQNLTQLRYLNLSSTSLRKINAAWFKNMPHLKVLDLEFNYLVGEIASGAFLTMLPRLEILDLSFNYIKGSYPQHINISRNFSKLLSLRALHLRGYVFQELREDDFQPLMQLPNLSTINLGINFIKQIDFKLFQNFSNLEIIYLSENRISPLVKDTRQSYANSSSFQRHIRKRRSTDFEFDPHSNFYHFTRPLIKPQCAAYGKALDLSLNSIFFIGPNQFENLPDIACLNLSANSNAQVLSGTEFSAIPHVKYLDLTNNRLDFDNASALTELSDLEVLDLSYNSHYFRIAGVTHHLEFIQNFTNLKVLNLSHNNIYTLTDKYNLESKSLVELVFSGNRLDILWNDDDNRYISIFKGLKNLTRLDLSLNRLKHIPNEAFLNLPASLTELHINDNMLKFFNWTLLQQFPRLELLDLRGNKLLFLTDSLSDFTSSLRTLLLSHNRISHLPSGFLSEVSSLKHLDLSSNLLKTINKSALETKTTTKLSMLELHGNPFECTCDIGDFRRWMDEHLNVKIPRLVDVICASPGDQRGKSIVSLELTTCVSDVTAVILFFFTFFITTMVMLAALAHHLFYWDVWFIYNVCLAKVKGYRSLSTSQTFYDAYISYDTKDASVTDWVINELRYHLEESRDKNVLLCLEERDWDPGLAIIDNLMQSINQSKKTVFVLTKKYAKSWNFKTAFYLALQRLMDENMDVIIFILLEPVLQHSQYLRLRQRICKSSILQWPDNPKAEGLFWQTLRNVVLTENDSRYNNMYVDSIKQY
Method: (§1) HEK Blue hTLR8 cells or HEK Blue hTLR7 cells were cultured in DMEM medium supplemented with 10% fetal bovine serum, penicillin (100 U/mL) and streptomycin ([…]). Thereafter, cells were seeded in 96-well plate (45,000 cells per well), and were cultured for 24 hours in a humidified incubator (37° C., 5% CO2).
After 24 hours, the supernatant and suspending cells were aspirated and replaced with fresh serum-free DMEM.
(§2) After 24 hours, 50 μL of the medium was aspirated from each well and then added to a new 96-well plate, followed by the addition of 50 μL of Quanti-Blue in each well and the incubation at 37° C. in darkness. Changes in color would occur in the […] within 60 minutes, and the absorbance was measured at 620 nm by using the multi-mode plate reader Vrioskan Flash. Inhibition rate (%)=[R848 (OD620)−Compound (OD620)]/[R848 (OD620)−Control (OD620)]×100%. Among these, the control group was only added with the same amount of cells. Finally, the software Prism 6.0 was utilized to plot a graph and calculate IC50 values. Or, the activity of the cells treated with ligand and DMSO was defined as 100% activity, and the activity of the untreated cells was defined as 0% activity.

HEK-Blue hTLR8 cell line = assay: Toxicity test of compounds (CCK-8 cell viability); type: cell-based, human; set-up: key to WST1 (normalized toxicity effect): viability relative to control well (background-subtracted OD), 1 = control; conditions: normalized cell viability, HEK-Blue cell lines
Method: In the 96-well plate used for the above-mentioned activity test of compounds (remaining 50 μL of culture medium containing cells), 5 μL of CellCountingKit-8 (CCK-8) Supermix was added to each well. Note that the introduction of air bubbles into the wells should be avoided since the air bubbles would interfere with the detection of OD value.
The culture plate was incubated in an incubator for 1 to 4 hours,
The edge of the 96-well plate could be tapped gently before reading the plate, and then the absorbance at 450 nm was measured by using the multi-mode plate reader.
Cell viability (%) was determined using the following formula: cell viability (%)=([Compound well ([…])−Background well (OD450)]/[Control well ([…])−Background well (OD450)])×100%. Among these, the background well was only added with the medium and CCK-8 reagent, the control well was only added with the medium, cells, R848 and CCK-8, and the compound wells were added with the medium, cells, R848, compounds in different concentrations, and CCK-8.

TLR7 = target: T2, TLR7 (Homo sapiens, UniProt Q9NYK1); assay: Inhibition of R848-induced signaling in HEK-Blue hTLR7 cell line (Quanti-Blue); type: cell-based
T2 construct: host or cells: HEK-Blue hTLR7 (HEK293-derived SEAP reporter cells)
T2 sequence (Q9NYK1 27-1049): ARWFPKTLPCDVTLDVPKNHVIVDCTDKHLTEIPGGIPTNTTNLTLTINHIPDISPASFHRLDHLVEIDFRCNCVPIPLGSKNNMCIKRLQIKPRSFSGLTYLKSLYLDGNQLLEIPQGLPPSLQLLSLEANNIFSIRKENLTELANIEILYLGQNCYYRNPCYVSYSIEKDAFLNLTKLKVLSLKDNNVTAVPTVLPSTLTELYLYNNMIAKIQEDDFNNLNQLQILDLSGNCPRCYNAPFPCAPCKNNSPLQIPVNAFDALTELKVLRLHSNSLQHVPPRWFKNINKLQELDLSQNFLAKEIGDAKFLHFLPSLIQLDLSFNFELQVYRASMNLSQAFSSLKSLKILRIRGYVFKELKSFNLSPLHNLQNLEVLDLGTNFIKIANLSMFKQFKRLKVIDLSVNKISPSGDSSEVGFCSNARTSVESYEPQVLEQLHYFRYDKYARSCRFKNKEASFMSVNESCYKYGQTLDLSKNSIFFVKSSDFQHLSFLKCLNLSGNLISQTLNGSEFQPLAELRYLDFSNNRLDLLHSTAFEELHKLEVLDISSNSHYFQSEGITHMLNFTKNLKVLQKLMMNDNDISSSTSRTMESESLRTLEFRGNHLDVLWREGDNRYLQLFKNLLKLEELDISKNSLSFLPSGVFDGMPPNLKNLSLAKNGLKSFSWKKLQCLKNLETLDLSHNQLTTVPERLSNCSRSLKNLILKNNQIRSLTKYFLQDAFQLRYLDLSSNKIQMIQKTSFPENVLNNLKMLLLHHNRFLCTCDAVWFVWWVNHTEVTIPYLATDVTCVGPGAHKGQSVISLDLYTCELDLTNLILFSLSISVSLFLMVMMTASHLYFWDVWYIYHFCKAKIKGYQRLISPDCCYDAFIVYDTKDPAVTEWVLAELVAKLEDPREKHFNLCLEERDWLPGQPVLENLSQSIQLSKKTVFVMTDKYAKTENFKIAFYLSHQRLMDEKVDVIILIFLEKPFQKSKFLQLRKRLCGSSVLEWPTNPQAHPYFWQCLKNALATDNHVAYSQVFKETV
Method: as §1
After 24 hours, the supernatant and suspending cells were aspirated and replaced with fresh serum-free DMEM. Cells were treated with 1 μg/mL of R848 (agonist of TLR7/8) or 5 μg/mL of ssRNA40/LyoVec or 5 μg/mL of ORN06/LyoVec (InvivoGen) and compounds with specified concentrations, and were placed in a humidified incubator (37° C., 5% CO2) for co-culture.
as §2

Row | Structure (SMILES) | Remaining R848-induced TLR8 signaling (normalized activity; ligand+DMSO = 1, untreated = 0) (TLR8) | WST1 (normalized toxicity effect) (HEK-Blue hTLR8 cell line) | TLR7 (normalized inhibitory effect on R848-induced signaling) (TLR7)
1 | CCOCc1nc(C#N)c(-c2ccccc2)n1CC(C)(C)O [Compound 38, 2-(ethoxymethyl)-1-(2-hydroxy-2-methylpropyl)-5-phenyl-1H-imidazole-4-carbonitrile] | 1.1 ± 0.2 | 0.7 ± 0.3 | 1.0 ± 0.2
2 | CCOCc1nc(C(=N)N)c(-c2ccccc2)n1CC(C)(C)O [Compound 39, 2-(ethoxymethyl)-1-(2-hydroxy-2-methylpropyl)-5-phenyl-1H-imidazole-4-carboxamidine] | 1.0 ± 0.2 | 0.7 ± 0.2 | 0.8 ± 0.1
3 | CCOCc1nc(C(N)=O)c(-c2ccccc2)n1CC(C)(C)O [Compound 40, 2-(ethoxymethyl)-1-(2-hydroxy-2-methylpropyl)-5-phenyl-1H-imidazole-4-carboxamide] | 0.7 ± 0.1 | 0.8 ± 0.3 | 1.0 ± 0.1
4 | CCOCc1nc(C=O)c(-c2ccccc2)n1CC(C)(C)O [Compound 41, 2-(ethoxymethyl)-1-(2-hydroxy-2-methylpropyl)-5-phenyl-1H-imidazole-4-carbaldehyde] | 1.2 + 0.2 | 0.7 ± 0.2 | 1.1 ± 0.2
5 | CCOCc1nc(C(=O)OC)c(-c2ccccc2)n1CC(C)(C)O [Compound 42, methyl 2-(ethoxymethyl)-1-(2-hydroxy-2-methylpropyl)-5-phenyl-1H-imidazole-4-carboxylate] | 0.9 ± 0.2 | 0.9 ± 0.1 | 0.9 ± 0.2
6 | CCOCc1nc(CO)c(-c2ccccc2)n1CC(C)(C)O [Compound 43, 1-[2-(ethoxymethyl)-4-(hydroxymethyl)-5-phenyl-1H-imidazole-1-yl]-2-methylpropan-2-ol] | 1.0 ± 0.2 | 0.8 ± 0.1 | 0.9 ± 0.2
7 | CCOCc1nc(COC)c(-c2ccccc2)n1CC(C)(C)O [Compound 44, 1-[2-(ethoxymethyl)-4-(methoxymethyl)-5-phenyl-1H-imidazole-1-yl]-2-methylpropan-2-ol] | 1.0 ± 0.3 | 0.8 ± 0.2 | 0.9 ± 0.2
8 | CCOCc1nc(C)c(-c2ccccc2)n1CC(C)(C)O [Compound 45, 1-[2-(ethoxymethyl)-4-methyl-5-phenyl-1H-imidazole-1-yl]-2-methylpropan-2-ol] | 0.8 ± 0.2 | 0.8 ± 0.3 | 0.9 ± 0.1
9 | CCOCc1nc(CF)c(-c2ccccc2)n1CC(C)(C)O [Compound 46, 1-[2-(ethoxymethyl)-4-(fluoromethyl)-5-phenyl-1H-imidazole-1-yl]-2-methylpropan-2-ol] | 1.0 ± 0.2 | 0.9 ± 0.3 | 0.8 ± 0.2
10 | CCOCc1nc(C(C)C)c(-c2ccccc2)n1CC(C)(C)O [Compound 48, 1-[2-(ethoxymethyl)-5-phenyl-4-(prop-2-yl)-1H-imidazole-1-yl]-2-methylpropan-2-ol] | 0.9 ± 0.2 | 0.8 ± 0.3 | 0.7 ± 0.1
11 | CCOCc1ncc(-c2ccccc2)n1CC(C)(C)O [Compound 50, 1-[2-(ethoxymethyl)-5-phenyl-1H-imidazole-1-yl]-2-methylpropan-2-ol] | 1.1 ± 0.3 | 0.9 ± 0.2 | 1.0 ± 0.1
12 | CCOCc1nc(Cl)c(-c2ccccc2)n1CC(C)(C)O [Compound 51, 1-[4-chloro-2-(ethoxymethyl)-5-phenyl-1H-imidazole-1-yl]-2-methylpropan-2-ol] | 0.6 ± 0.1 | 0.9 ± 0.2 | 1.1 ± 0.2
